Assay results as given in PubChem BioAssay (NCI).
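1) Cells in 96-well plates. 2) Compound, 48 h, 5 concentrations. 3) Linear interpolation between surrounding doses. 4) Unreached endpoint = highest concentration. GI50 is the concentration that inhibits growth by half. The concentration for full growth arrest is given as TGI.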

Tests used:
Assay in all cases: NCI tumour cell line growth inhibition, 48 h
[1] = system: M14 melanoma
[2] = system: MALME-3M melanoma
[3] = system: SNB-75 CNS
[4] = system: LOX IMVI melanoma
[5] = system: UO-31 renal
[6] = system: HCT-15 colon
[7] = system: RPMI-8226 leukemia
[8] = system: HCC-2998 colon
[9] = system: SK-OV-3 ovarian
[10] = system: OVCAR-8 ovarian
[11] = system: NCI-H522 lung
[12] = system: MDA-MB-435
[13] = system: EKVX NSCLC
[14] = system: IGROV1 ovarian
[15] = system: A498 renal
[16] = system: ACHN renal
[17] = system: COLO 205 colon
[18] = system: SF-268 CNS
[19] = system: TK-10 renal
[20] = system: HCT-116 colon
[21] = system: RXF 393 renal
[22] = system: A549 NSCLC
[23] = system: SF-295 CNS
[24] = system: SR leukemia
[25] = system: KM12 colon
[26] = system: OVCAR-4 ovarian
[27] = system: U251 CNS
[28] = system: HT29 colon
[29] = system: MCF7 breast
[30] = system: SK-MEL-5 melanoma
[31] = system: SN12C renal
[32] = system: HS 578T breast
[33] = system: OVCAR-5 ovarian
[34] = system: BT-549 breast
[35] = system: K-562 leukemia
[36] = system: HOP-62 NSCLC
[37] = system: UACC-257 melanoma
[38] = system: SW-620 colon
[39] = system: SK-MEL-2 melanoma
[40] = system: HL-60(TB) leukemia
[41] = system: SNB-19 CNS
[42] = system: NCI-H460 lung
[43] = system: PC-3 prostate
[44] = system: HOP-92 NSCLC
[45] = system: NCI-H226 lung
[46] = system: CCRF-CEM leukemia
[47] = system: SK-MEL-28 melanoma
[48] = system: SF-539 CNS
[49] = system: T-47D breast
[50] = system: MDA-MB-231 breast
[51] = system: OVCAR-3 ovarian
[52] = system: MOLT-4 leukemia
[53] = system: UACC-62 melanoma
[54] = system: 786-0 renal

`Cc1cc(N(CCNc2ccnc3cc(Cl)ccc23)Cc2cccs2)nc(Cl)n1` was tested, and the GI50 [1] was 1.54 µM, the TGI [1] was 3.19 µM and the GI50 [2] was 1.62 µM. It also gave a TGI [2] of 3.17 µM, a GI50 [3] of 1.5 µM and a TGI [3] of 2.9 µM. For the same compound, the GI50 [4] was 1.47 µM, the TGI [4] was 2.89 µM and the GI50 [5] was 1.3 µM. The TGI [5] was 2.6 µM, the GI50 [6] was 1.49 µM and the TGI [6] was 2.99 µM. For the same compound, the GI50 [7] was 1.97 µM, the TGI [7] was 4.55 µM and the GI50 [8] was 1.74 µM. It also gave a TGI [8] of 3.4 µM, a GI50 [9] of 1.8 µM and a TGI [9] of 3.24 µM. It also gave a GI50 [10] of 2.21 µM, a TGI [10] of 5.33 µM and a GI50 [11] of 1.44 µM. The TGI [11] was 3.55 µM, the GI50 [12] was 1.56 µM and the TGI [12] was 3.05 µM. For the same compound, the GI50 [13] was 2.08 µM, the TGI [13] was 7.38 µM and the GI50 [14] was 1.64 µM. The TGI [14] was 3.28 µM, the GI50 [15] was 1.68 µM and the TGI [15] was 4.15 µM. For the same compound, the GI50 [16] was 1.44 µM, the TGI [16] was 2.75 µM and the GI50 [17] was 1.72 µM. The TGI [17] was 3.54 µM, the GI50 [18] was 1.83 µM and the TGI [18] was 4.04 µM. The GI50 [19] was 1.62 µM, the TGI [19] was 2.99 µM and the GI50 [20] was 0.526 µM. The TGI [20] was 2 µM, the GI50 [21] was 1.45 µM and the TGI [21] was 2.92 µM. The GI50 [22] was 1.43 µM, the TGI [22] was 4.5 µM and the GI50 [23] was 1.32 µM. It also gave a TGI [23] of 2.77 µM, a GI50 [24] of 1.02 µM and a TGI [24] of 4.02 µM. For the same compound, the GI50 [25] was 1.69 µM, the TGI [25] was 3.29 µM and the GI50 [26] was 1.39 µM. The TGI [26] was 2.94 µM, the GI50 [27] was 0.893 µM and the TGI [27] was 2.28 µM. The GI50 [28] was 1.45 µM, the TGI [28] was 3.1 µM and the GI50 [29] was 1.53 µM. The TGI [29] was 3.13 µM, the GI50 [30] was 1.74 µM and the TGI [30] was 3.17 µM. For the same compound, the GI50 [31] was 1.58 µM, the TGI [31] was 3.19 µM and the GI50 [32] was 2.1 µM. The TGI [32] was 4.68 µM, the GI50 [33] was 1.64 µM and the TGI [33] was 3.53 µM. The GI50 [34] was 1.87 µM, the TGI [34] was 3.94 µM and the GI50 [35] was 1.02 µM. For the same compound, the TGI [35] was 3.47 µM, the GI50 [36] was 1.65 µM and the TGI [36] was 3.65 µM. For the same compound, the GI50 [37] was 1.84 µM, the TGI [37] was 3.56 µM and the GI50 [38] was 1.4 µM. It also gave a TGI [38] of 3 µM, a GI50 [39] of 1.84 µM and a TGI [39] of 3.54 µM. It also gave a GI50 [40] of 1.99 µM, a TGI [40] of 3.84 µM and a GI50 [41] of 2.11 µM. It also gave a TGI [41] of 5.62 µM, a GI50 [42] of 1.13 µM and a TGI [42] of 2.58 µM. The GI50 [43] was 1.69 µM, the TGI [43] was 3.94 µM and the GI50 [44] was 1.16 µM. It also gave a TGI [44] of 2.61 µM, a GI50 [45] of 1.83 µM and a TGI [45] of 3.83 µM. For the same compound, the GI50 [46] was 2.07 µM, the TGI [46] was 5.41 µM and the GI50 [47] was 1.61 µM. It also gave a TGI [47] of 3.18 µM, a GI50 [48] of 1.83 µM and a TGI [48] of 3.29 µM. For the same compound, the GI50 [49] was 1.12 µM, the TGI [49] was 2.88 µM and the GI50 [50] was 1.49 µM. It also gave a TGI [50] of 3.06 µM, a GI50 [51] of 1.43 µM and a TGI [51] of 2.83 µM. For the same compound, the GI50 [52] was 2.48 µM, the TGI [52] was 5.57 µM and the GI50 [53] was 1.69 µM. The TGI [53] was 3.19 µM, the GI50 [54] was 0.429 µM and the TGI [54] was 1.63 µM.
